Patent US20090169630A1, “Methods and Compositions for Controlled and Sustained Production and Delivery of Peroxides and/or Oxygen for Biological and Industrial Applications” (priority 2006, published 2009)

Legend:
[1] = test system: hypoxemic rabbits; details: cited from earlier work
[2] = Permeation (diffusion) cell: hydrogen peroxide release from UHP/PFC slurry across a flat PLGA membrane; assay type: physicochemical; details: UHP/PFC slurry below, distilled water above
Description: A diffusion cell was constructed in order to measure the release rate of hydrogen peroxide from UHP and its diffusion across a selectively permeable membrane. UHP was dispersed in a PFC liquid and maintained in the bottom half of the cell. Rather than coat the particles, a flat PLGA membrane was used to separate the UHP from distilled water located in the top half of the cell. The PLGA membrane is permeable to water and hydrogen peroxide, but is a very effective barrier to permeation of the PFC. Thus, during the experiment, water diffused across the PLGA membrane and into the PFC/UHP slurry in the bottom half of the cell. Hydrogen peroxide was generated when the water contacted the UHP. The hydrogen peroxide then diffused through the PLGA membrane into the top half of the diffusion cell.
The amount of hydrogen peroxide in the top half of the cell was monitored colorimetrically by testing samples that were periodically removed from the water-rich phase in the top half of the cell. […]

SMILES	rise in arterial PO2 ([1]; hypoxemic rabbits, intravenous UHP)	outcome at amounts that would supply the oxygen consumption needs of a rabbit ([1]; rabbits, high UHP amounts)	diffusion through the PLGA membrane [2]
NC(N)=O.OO [UHP, urea hydrogen peroxide]	10 mmHg	died of gas emboli	–
NC(N)=O [urea]	–	–	did not diffuse through the membrane
